Test results published in paper PMC3503449 (Breast cancer research and treatment, 2008).

Target: estrogen receptor α (ERα) (Homo sapiens, UniProt P03372)
Assay: ERE-luciferase reporter, antagonism of EXE-induced ER activity
Assay type: cell-based

Chain of estrogen receptor α (ERα) (P03372 whole entry): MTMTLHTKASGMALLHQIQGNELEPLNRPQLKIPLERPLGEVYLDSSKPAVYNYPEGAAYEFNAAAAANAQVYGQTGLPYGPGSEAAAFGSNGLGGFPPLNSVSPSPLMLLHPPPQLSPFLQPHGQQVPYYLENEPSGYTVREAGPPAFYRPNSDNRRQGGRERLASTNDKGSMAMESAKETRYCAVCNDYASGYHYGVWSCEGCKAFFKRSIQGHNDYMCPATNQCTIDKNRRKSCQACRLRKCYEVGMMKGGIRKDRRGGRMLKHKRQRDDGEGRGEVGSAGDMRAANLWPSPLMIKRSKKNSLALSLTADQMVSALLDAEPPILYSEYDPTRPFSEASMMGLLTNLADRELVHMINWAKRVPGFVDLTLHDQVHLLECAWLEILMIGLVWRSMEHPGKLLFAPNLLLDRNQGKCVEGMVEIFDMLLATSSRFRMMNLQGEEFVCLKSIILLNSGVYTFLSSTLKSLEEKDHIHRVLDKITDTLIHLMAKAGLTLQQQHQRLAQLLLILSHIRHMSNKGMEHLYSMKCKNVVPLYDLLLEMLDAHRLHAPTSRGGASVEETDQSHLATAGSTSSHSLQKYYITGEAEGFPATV

C[C@]12CC[C@@H]3c4ccc(O)cc4C[C@@H](CCCCCCCCC[S+]([O-])CCCC(F)(F)C(F)(F)F)[C@H]3[C@@H]1CC[C@@H]2O (stereo partly shown) [ICI, ICI 182780]
ERE-luciferase reporter, antagonism of EXE-induced ER activity: ER activity was inhibited using the pure ER antagonist ICI
